The text below walks through data of patent publication US20250042918A1, “COMPOUNDS” (Fundación Del Sector Públlco Estatal Centro Nacional De …, priority 2021, published 2025).

Common to all, as to assay type: cell-based
One assay has as its system KG-1. Put plainly: In vitro potency against leukemia cell lines (CellTiter Glo). The note with it: Homo sapiens, 72 hours, read-out: absolute IC50 KG-1. How it is done:
(§1) To prepare the complete medium FBS and appropriate additives were added according to the information sheet provided by the vendor and mixed gently. The cell name and complete medium and passage number marked on the flask were checked, and the culture medium removed and discarded using a vacuum pump. […] 3.0 ml of Trypsin-EDTA solution was added to the flask and the cells observed under an inverted microscope until cell layer is dispersed. 8.0 ml of complete growth medium was added and the cells aspirated by gently pipetting. The cell suspension was transferred to a centrifuge tube and centrifuged at 800-1000 rpm for 3-5 minutes. The supernatant was discarded using a vacuum pump, and an appropriate volume of complete medium added. The cell pellet was suspended by gently pipetting, and the cell numbers counted with Vi-cell XR and the cells adjusted to appropriate density. 100 μL of cell suspension to 96-well opaque-walled clear bottom plates was added according to the planned plate layout and the plates placed in the CO2 incubator overnight.
(§2) c. […] Meanwhile the day 0 plate was measured by Cell TiterGlo as listed below.
(§3) d. Cells were incubated with the compounds for 72 h at 5% CO2, 37° C.
(§4) The plate and its contents were equilibrated to room temperature for approximately 30 minutes, after which 100 μL of CellTiter-Glo reagent was added to the assay plate by Multidrop Combi instrument and the contents mixed for 10 minutes on an orbital shaker to induce cell lysis. The plate was allowed to incubate at room temperature for 10 minutes to stabilize luminescent signal and the clear bottom pasted with white back seal and the luminescence recorded with Enspire with the settings: Luminescence, measurement time 0.1 ms.
(§5) In all cases, the incubation time was 72 hours and the cell lines were grown as a suspension. The seeding density was […] in a 96 well plate.
In general terms: ATP-based viability assays read luminescence as a measure of living cells.

A further assay has as its system OCI-M1. The description is as above. The note with it: 72 hours, read-out: absolute IC50 OCI-M1. The protocol: as §1, §2, §3, §4, §5
The next assay has as its system HL-60. The assay is described as above. The note with it: Homo sapiens, 72 hours, read-out: absolute IC50 HL-60. How it is done:
as §1, §2, §3, §4, §5

The subject of another assay is MV-4-11. The description is as above. Conditions: Homo sapiens, MV4-11; 72 hours; read-out: absolute IC50 MV-4-11. The protocol:
as §1, §2, §3, §4, §5

A further assay deals with Jeko-1. The assay is described as above. Conditions: Homo sapiens, 72 hours, read-out: absolute IC50 JeKo-1. How it is done: as §1, §2, §3, §4, §5
The test system of a further assay is Molm-13. Described as above. The note with it: Homo sapiens, 72 hours, read-out: absolute IC50 Molm-13. How it is done:
as §1, §2, §3, §4, §5

In a further assay the test system is Kasumi-3. The assay is described as above. Conditions: 72 hours, read-out: absolute IC50 Kasumi-3. How it is done:
as §1, §2, §3, §4, §5

For the next assay, the system named is HCC38. Put plainly: In vitro potency against breast cancer cell lines (CellTiter Glo). The note with it: Homo sapiens, HCC38, 72 h; read-out: absolute IC50 HCC38. How it is done: as §1, §2, §3
(§6) The CellTiter-Glo buffer was thawed and equilibrated to room temperature prior to use. The lyophilized CellTiter-Glo substrate was equilibrated to room temperature prior to use. The appropriate volume of CellTiter-Glo buffer was transferred into the amber bottle containing CellTiter-Glo substrate to reconstitute the lyophilized enzyme/substrate mixture, thereby forming the CellTiter-Glo reagent. Mixing was carried out by gently vortexing, swirling or by inverting the contents to obtain a homogeneous solution, the CellTiter-Glo substrate going into solution easily in less than one minute.
as §4

The next assay relates to BT-474. Described as above. The note with it: Homo sapiens, BT-474, 72 h; read-out: absolute IC50 BT-474. How it is done:
as §1, §2, §3, §6, §4

The subject of a further assay is HCC1954. The assay is described as above. Conditions: Homo sapiens, HCC1954, 72 h; read-out: absolute IC50 HCC1954. The protocol: as §1, §2, §3, §6, §4
In the next assay the test system is MDA-MB-361. The assay is described as above. Conditions: Homo sapiens, MDA-MB-361, 72 h; read-out: absolute IC50 MDA-MB-361. How it is done: as §1, §2, §3, §6, §4
A further assay relates to HCC1143. Described as above. The note with it: Homo sapiens, HCC1143, 72 h; read-out: absolute IC50 HCC1143. The protocol: as §1, §2, §3, §6, §4
A further assay concerns T-47D. The assay is described as above. Conditions: Homo sapiens, T47D, 72 h; read-out: absolute IC50 T-47D. How it is done:
as §1, §2, §3, §6, §4

SMILES strings stand for the structures.

As for `Cn1c(=O)n(-c2ccc(C(C)(C)C#N)cc2)c2c3cc(-c4cnc5ccccc5c4)ccc3ncc21` [Dactolisib, dactolisib], the IC50 with KG-1 is 90 nM; with OCI-M1 it was 125 nM; with HL-60, 430 nM; in the assay with MV-4-11 it was 36.5 nM; in the assay with Jeko-1, 67.8 nM; in the assay on Molm-13, 44.3 nM. Besides, the IC50 in the assay on Kasumi-3 turned out to be 105 nM; with HCC38 it was 66.4 nM; in the assay on BT-474, 114 nM; in the assay on HCC1954, 14.5 nM; in the assay on MDA-MB-361 it was 30.1 nM; in the assay on HCC1143 it was 145 nM. Also, the half-inhibitory concentration (IC50) in the assay on T-47D was determined as 56.5 nM.

Broadly, the IC50 is the concentration needed to halve the response being measured.
